Laboratory results taken from patent US8404643B2, “Metastin derivatives and use thereof” (priority 2005, dated 2013).
Numbered stars: 1 amine (or outer) side, 2 acyl side, 3 side chain; on linkers, the order of the positions; unused ones are H or OH. Square brackets hold non-standard residues; d marks the D form. Peptide text beside a SMILES is read from it. Nip(3R) = O=C([C@@H]1CCCN([*:1])C1)[*:2]; Phe(3-F) = N[C@@H](Cc1cccc(F)c1)C(=O)O; Phe(4-F) = N[C@@H](Cc1ccc(F)cc1)C(=O)O; Arg(Me) = CNC(=N)NCCC[C@H](N)C(=O)O; Dap(CONH2) = NC(=O)NC[C@H](N)C(=O)O; Ala(cPr) = N[C@@H](CC1CC1)C(=O)O; Hyp = O=C(O)[C@@H]1C[C@@H](O)CN1; Pip = O=C(O)[C@@H]1CCCCN1; Dab = NCC[C@H](N)C(=O)O; Nva = CCC[C@H](N)C(=O)O; Ahx = NCCCCCC(=O)O; azaGly = NNC(=O)O

What follows are compounds tested against T1, hOT7T175 (Homo sapiens, UniProt Q969F8) (assay: Assay for intracellular Ca ion level-increasing activity using FLIPR). Conditions: hOT7T175/CHO cells, relative to Metastin (1-54).
T1 construct: expressed in transfected cells
Format: cell-based
Description: In accordance with the method described in JPA 2000-312590, the intracellular Ca ion level-increasing activity was measured using FLIPR.
The stable expression cell line hOT7T175 was obtained by transfection of the expression plasmid pAK-rOT175 for animal cells into CHO/dhfr^− cells, using CellPhect Transfection Kit (Amersham Pharmacia Biotech, Inc.). First, 240 μL of Buffer A (attached to CellPhect Transfection Kit) was added to 9.6 μg of plasmid DNA dissolved in 240 μL of distilled water followed by stirring. After the mixture was settled for 10 minutes, 480 μL of Buffer B (attached to CellPhect Transfection Kit) was added to the mixture, which was vigorously stirred to form liposomes containing the DNA. Then, 4×10^5 CHO/dhfr^− cells (obtained from ATCC) were inoculated on a 60 mm Petri dish. After culturing the cells in Ham's F-12 medium (Nissui Seiyaku Co., Ltd.) supplemented with 10% fetal bovine serum (BIO WHITTAKER, Inc.) at 37° C. for 2 days in 5% carbon dioxide gas, […] of the liposomes were dropwise added to the cells on the Petri dish. After culturing the cells at 37° C. for 6 hours in 5% carbon dioxide gas, the cells were washed twice with serum-free Ham's F-12 medium and 3 mL of 15% glycerol was added to the cells on the Petri dish followed by treatment for 2 minutes. The cells were again washed twice with serum-free Ham's F-12 medium followed by incubation in Ham's F-12 medium supplemented with 10% fetal bovine serum at 37° C. for 15 hours in 5% carbon dioxide gas. The cells were dispersed by trypsin treatment to recover from the Petri dish. The recovered cells were inoculated on a 6-well plate in 1.25×10^4 cells/well and incubation was initiated at 37° C. in Dulbecco's modified Eagle medium (DMEM) medium (Nissui Seiyaku Co., Ltd.) containing 10% dialyzed fetal bovine serum (JRH BIOSCIENCES, Inc.) in 5% carbon dioxide gas. The plasmid-transfected CHO transformants grew in the medium but the non-transfected cells gradually died, accordingly the medium was exchanged on Days 1 and 2 after the initiation of incubation to remove the cells died. Approximately 20 colonies of the CHO transformants that kept growing on Days 8 to 10 after the incubation were isolated. From the cells in these colonies, cells showing high reactivity with the ligand peptide metastin (hereinafter merely referred to as hOT7T175/CHO) were selected to provide for the following experiment.
The intracellular Ca ion level-increasing activity of the synthetic peptide in hOT7T175/CHO was determined using FLIPR (Molecular Devices, Inc.).
hOT7T175/CHO was subcultured in DMEM supplemented with 10% dialyzed fetal bovine serum (hereinafter abbreviated as dFBS) (hereinafter referred to as 10% dFBS/DMEM) and provided for the experiment. The hOT7T175/CHO was suspended in 10% dFBS-DMEM in 15×10^4 cells/ml. The suspension was inoculated on a 96-well plate for FLIPR (Black Plate Clear Bottom, Coster, Inc.) at 200 μl/well (3.0×10^4 cells/200 μL/well), followed by incubation at 37° C. overnight in a 5% CO2 incubator (hereinafter referred to as the cell plate). Then, 21 ml of HANKS/HBSS (9.8 g of HANKS, 0.35 g of sodium hydrogencarbonate, 20 ml of 1M HEPES; after adjusting the pH to 7.4 with 1N sodium hydroxide, the mixture was sterilized by filtration), 210 μl of 250 mM Probenecid and 210 μl of fetal bovine serum (FBS) (HANKS/HBSS-Probenecid-FBS) were mixed.
Furthermore, 2 vials of Fluo3-AM (50 μg/vial) were dissolved in 21 μL of dimethylsulfoxide and 21 μL of 20% Pluronic acid. The resulting solution was added to and mixed with 10 ml of the HANKS/HBSS-Probenecid-FBS described above. After the culture medium was removed, the mixture was dispensed onto the cell plate in 100 μl each/well, followed by incubation at 37° C. for an hour in a 5% CO2 incubator (pigment loading). The peptide was dissolved in dimethylsulfoxide in 1×10^−3 M. The peptide solution was diluted with HANKS/HBSS containing 2.5 mM Probenecid, 0.2% BSA and 0.1% CHAPS. […]

T1 sequence (Q969F8 whole entry L364H): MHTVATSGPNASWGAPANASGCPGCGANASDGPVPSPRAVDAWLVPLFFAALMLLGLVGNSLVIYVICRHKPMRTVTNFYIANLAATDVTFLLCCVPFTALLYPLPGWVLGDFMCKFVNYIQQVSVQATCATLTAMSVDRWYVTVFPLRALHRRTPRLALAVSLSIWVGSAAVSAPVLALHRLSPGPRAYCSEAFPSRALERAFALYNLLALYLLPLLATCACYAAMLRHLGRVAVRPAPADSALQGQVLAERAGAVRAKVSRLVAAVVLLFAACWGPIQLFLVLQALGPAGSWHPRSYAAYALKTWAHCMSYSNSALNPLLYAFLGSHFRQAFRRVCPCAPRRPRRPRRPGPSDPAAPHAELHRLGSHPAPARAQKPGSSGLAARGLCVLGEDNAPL

Compound	Specific Activity: intracellular Ca ion level-increasing activity [specific activity to Metastin (1-54)]
CNC(=N)NCCC[C@H](NC(=O)[C@H](CC(C)C)NC(=O)NNC(=O)[C@H](Cc1cccc(F)c1)NC(=O)[C@@H](NC(=O)[C@H](CC(N)=O)NC(=O)[C@@H](Cc1c[nH]c2ccccc12)NC(=O)[C@@H](Cc1ccc(O)cc1)NC(C)=O)[C@@H](C)O)C(=O)N[C@@H](Cc1c[nH]c2ccccc12)C(N)=O [Compound No. 750, Ac-D-Tyr-D-Trp-Asn-Thr-Phe(3F)-AzaGly-Leu-Arg(Me)-Trp-NH2] (Ac-[dY][dW]NT[Phe(3-F)][azaGly]L[Arg(Me)]W-NH2)	1.0
CNC(=N)NCCC[C@H](NC(=O)[C@H](CC(C)C)NC(=O)NNC(=O)[C@H](Cc1ccccc1)NC(=O)[C@@H](NC(=O)[C@H](CC(N)=O)NC(=O)[C@H](CO)NC(=O)[C@@H](Cc1ccc(O)cc1)NC(C)=O)[C@@H](C)O)C(=O)N[C@@H](Cc1c[nH]c2ccccc12)C(N)=O [Compound No. 744, Ac-D-Tyr-Ser-Asn-Thr-Phe-AzaGly-Leu-Arg(Me)-Trp-NH2] (Ac-[dY]SNTF[azaGly]L[Arg(Me)]W-NH2)	2.4
CNC(=N)NCCC[C@H](NC(=O)[C@H](CC(C)C)NC(=O)NNC(=O)[C@H](Cc1ccccc1)NC(=O)[C@@H](NC(=O)[C@H](CCN)NC(=O)[C@@H]1C[C@@H](O)CN1C(=O)[C@@H](Cc1ccc(O)cc1)NC(C)=O)[C@@H](C)O)C(=O)N[C@@H](Cc1c[nH]c2ccccc12)C(N)=O [Compound No. 864, Ac-D-Tyr-Hyp-Dab-Thr-Phe-AzaGly-Leu-Arg(Me)-Trp-NH2] (Ac-[dY][Hyp][Dab]TF[azaGly]L[Arg(Me)]W-NH2)	1.0
CNC(=N)NCCC[C@H](NC(=O)[C@H](CC(C)C)NC(=O)NNC(=O)[C@H](Cc1ccccc1)NC(=O)[C@@H](NC(=O)[C@H](CC(N)=O)NC(=O)[C@H](CC(C)C)NC(=O)[C@@H](Cc1ccc(O)cc1)NC(C)=O)[C@@H](C)O)C(=O)N[C@@H](Cc1c[nH]c2ccccc12)C(N)=O [Compound No. 743, Ac-D-Tyr-Leu-Asn-Thr-Phe-AzaGly-Leu-Arg(Me)-Trp-NH2] (Ac-[dY]LNTF[azaGly]L[Arg(Me)]W-NH2)	3.4
CNC(=N)NCCC[C@H](NC(=O)[C@H](CC(C)C)NC(=O)NNC(=O)[C@H](Cc1ccccc1)NC(=O)[C@@H](NC(=O)[C@H](CC(N)=O)NC(=O)CCCCCNC(C)=O)[C@@H](C)O)C(=O)N[C@@H](Cc1c[nH]c2ccccc12)C(N)=O [Compound No. 713, Ac-Acp-Asn-Thr-Phe-AzaGly-Leu-Arg(Me)-Trp-NH2] (Ac-[Ahx]NTF[azaGly]L[Arg(Me)]W-NH2)	3.7
CCC[C@H](NC(=O)[C@@H]1C[C@@H](O)CN1C(=O)[C@@H](Cc1ccc(O)cc1)NC(C)=O)C(=O)N[C@H](C(=O)N[C@@H](Cc1ccccc1)C(=O)NNC(=O)N[C@@H](CC(C)C)C(=O)N[C@@H](CCCNC(=N)NC)C(=O)N[C@@H](Cc1c[nH]c2ccccc12)C(N)=O)[C@@H](C)O [Compound No. 886, Ac-D-Tyr-Hyp-Nva-Thr-Phe-AzaGly-Leu-Arg(Me)-Trp-NH2] (Ac-[dY][Hyp][Nva]TF[azaGly]L[Arg(Me)]W-NH2)	1.2
CNC(=N)NCCC[C@H](NC(=O)[C@H](CC(C)C)NC(=O)NNC(=O)[C@H](Cc1ccccc1)NC(=O)[C@@H](NC(=O)[C@H](CC(N)=O)NC(=O)[C@@H]1CCCCN1C(=O)[C@@H](Cc1ccc(O)cc1)NC(C)=O)[C@@H](C)O)C(=O)N[C@@H](Cc1c[nH]c2ccccc12)C(N)=O [Compound No. 721, Ac-D-Tyr-Pic(2)-Asn-Thr-Phe-AzaGly-Leu-Arg(Me)-Trp-NH2] (Ac-[dY][Pip]NTF[azaGly]L[Arg(Me)]W-NH2)	1.1
CNC(=N)NCCC[C@H](NC(=O)[C@H](CC(C)C)NC(=O)NNC(=O)[C@H](Cc1ccc(F)cc1)NC(=O)[C@@H](NC(=O)[C@H](CC(N)=O)NC(=O)CNC(=O)[C@@H](Cc1ccc(O)cc1)NC(C)=O)[C@@H](C)O)C(=O)N[C@@H](Cc1c[nH]c2ccccc12)C(N)=O [Compound No. 790, Ac-D-Tyr-Gly-Asn-Thr-Phe(4F)-AzaGly-Leu-Arg(Me)-Trp-NH2] (Ac-[dY]GNT[Phe(4-F)][azaGly]L[Arg(Me)]W-NH2)	2.3
CNC(=N)NCCC[C@H](NC(=O)[C@H](CC(C)C)NC(=O)NNC(=O)[C@H](Cc1ccccc1)NC(=O)[C@@H](NC(=O)[C@H](CNC(N)=O)NC(=O)[C@@H](Cc1c[nH]c2ccccc12)NC(=O)[C@@H](Cc1ccc(O)cc1)NC(C)=O)[C@@H](C)O)C(=O)N[C@@H](Cc1c[nH]c2ccccc12)C(N)=O [Compound No. 717, Ac-D-Tyr-D-Trp-Alb-Thr-Phe-AzaGly-Leu-Arg(Me)-Trp-NH2] (Ac-[dY][dW][Dap(CONH2)]TF[azaGly]L[Arg(Me)]W-NH2)	1.0
CNC(=N)NCCC[C@H](NC(=O)[C@H](CC(C)C)NC(=O)NNC(=O)[C@H](Cc1ccccc1)NC(=O)[C@@H](NC(=O)[C@H](CC(N)=O)NC(=O)[C@@H]1CCCN(C(=O)[C@@H](Cc2ccc(O)cc2)NC(C)=O)C1)[C@@H](C)O)C(=O)N[C@@H](Cc1c[nH]c2ccccc12)C(N)=O [Compound No. 722, Ac-D-Tyr-Pic(3)-Asn-Thr-Phe-AzaGly-Leu-Arg(Me)-Trp-NH2] (Ac-[dY][Nip(3R)]NTF[azaGly]L[Arg(Me)]W-NH2)	2.2
CNC(=N)NCCC[C@H](NC(=O)[C@H](CC(C)C)NC(=O)NNC(=O)[C@H](Cc1ccccc1)NC(=O)[C@@H](NC(=O)[C@H](CCN)NC(=O)[C@@H](Cc1c[nH]c2ccccc12)NC(=O)[C@@H](Cc1ccc(O)cc1)NC(C)=O)[C@@H](C)O)C(=O)N[C@@H](Cc1c[nH]c2ccccc12)C(N)=O [Compound No. 740, Ac-D-Tyr-D-Trp-Dab-Thr-Phe-AzaGly-Leu-Arg(Me)-Trp-NH2] (Ac-[dY][dW][Dab]TF[azaGly]L[Arg(Me)]W-NH2)	1.1
CNC(=N)NCCC[C@H](NC(=O)[C@H](CC(C)C)NC(=O)NNC(=O)[C@H](Cc1ccccc1)NC(=O)[C@@H](NC(=O)CNC(=O)[C@@H]1C[C@@H](O)CN1C(=O)[C@@H](Cc1ccc(O)cc1)NC(C)=O)[C@@H](C)O)C(=O)N[C@@H](Cc1c[nH]c2ccccc12)C(N)=O [Compound No. 862, Ac-D-Tyr-Hyp-Gly-Thr-Phe-AzaGly-Leu-Arg(Me)-Trp-NH2] (Ac-[dY][Hyp]GTF[azaGly]L[Arg(Me)]W-NH2)	0.7
CNC(=N)NCCC[C@H](NC(=O)[C@H](CC1CC1)NC(=O)NNC(=O)[C@H](Cc1ccccc1)NC(=O)[C@@H](NC(=O)[C@H](CC(N)=O)NC(=O)[C@@H]1C[C@@H](O)CN1C(=O)[C@@H](Cc1ccc(O)cc1)NC(C)=O)[C@@H](C)O)C(=O)N[C@@H](Cc1c[nH]c2ccccc12)C(N)=O [Compound No. 856, Ac-D-Tyr-Hyp-Asn-Thr-Phe-AzaGly-Ala(cPr)-Arg(Me)-Trp-NH2] (Ac-[dY][Hyp]NTF[azaGly][Ala(cPr)][Arg(Me)]W-NH2)	0.6
